Data on six compounds can be found in patent publication US20230064983A1 (priority 2020, published 2023).

The target in assay [1] is T1, EGFR with insertion SVD between D770 and N771 (mutEGFR D770_N771insSVD) (Homo sapiens, UniProt P00533, DUP768-770).
T1 construct: amino acids R669 to A1210; made in house; host or cells: Sf9 insect cells (baculovirus)
Put plainly: Exon20-Mutant-EGFR(D770_N771insSVD) kinase assay (TR-FRET). It is filed as biochemical. As to conditions: 2 mM ATP, Table 2.

Assay [2] addresses Ba/F3-EGFR-D770_N771insSVD cells (Homo sapiens, UniProt P00533, DUP768-770, cells depend on it). Nature of the assay: Ba/F3 cell survival assay, EGFR D770_N771insSVD. It counts as cell-based. The settings on record: Cell Titer-Glo, 48 h, without IL-3; Table 4; read-out: BA/F3 (insSVD) IC50.
For assay [3], the target named is Ba/F3-EGFR-WT cells (Homo sapiens, UniProt P00533). Nature of the assay: Ba/F3 cell survival assay, wild type EGFR. It counts as cell-based. As to conditions: Cell Titer-Glo, 48 h, with 10 ng/mL EGF; Table 4; read-out: BA/F3 (wild type) IC50.
Ba/F3-EGFR-WT cells, sequence (P00533 whole entry, looked up, stated change not applied): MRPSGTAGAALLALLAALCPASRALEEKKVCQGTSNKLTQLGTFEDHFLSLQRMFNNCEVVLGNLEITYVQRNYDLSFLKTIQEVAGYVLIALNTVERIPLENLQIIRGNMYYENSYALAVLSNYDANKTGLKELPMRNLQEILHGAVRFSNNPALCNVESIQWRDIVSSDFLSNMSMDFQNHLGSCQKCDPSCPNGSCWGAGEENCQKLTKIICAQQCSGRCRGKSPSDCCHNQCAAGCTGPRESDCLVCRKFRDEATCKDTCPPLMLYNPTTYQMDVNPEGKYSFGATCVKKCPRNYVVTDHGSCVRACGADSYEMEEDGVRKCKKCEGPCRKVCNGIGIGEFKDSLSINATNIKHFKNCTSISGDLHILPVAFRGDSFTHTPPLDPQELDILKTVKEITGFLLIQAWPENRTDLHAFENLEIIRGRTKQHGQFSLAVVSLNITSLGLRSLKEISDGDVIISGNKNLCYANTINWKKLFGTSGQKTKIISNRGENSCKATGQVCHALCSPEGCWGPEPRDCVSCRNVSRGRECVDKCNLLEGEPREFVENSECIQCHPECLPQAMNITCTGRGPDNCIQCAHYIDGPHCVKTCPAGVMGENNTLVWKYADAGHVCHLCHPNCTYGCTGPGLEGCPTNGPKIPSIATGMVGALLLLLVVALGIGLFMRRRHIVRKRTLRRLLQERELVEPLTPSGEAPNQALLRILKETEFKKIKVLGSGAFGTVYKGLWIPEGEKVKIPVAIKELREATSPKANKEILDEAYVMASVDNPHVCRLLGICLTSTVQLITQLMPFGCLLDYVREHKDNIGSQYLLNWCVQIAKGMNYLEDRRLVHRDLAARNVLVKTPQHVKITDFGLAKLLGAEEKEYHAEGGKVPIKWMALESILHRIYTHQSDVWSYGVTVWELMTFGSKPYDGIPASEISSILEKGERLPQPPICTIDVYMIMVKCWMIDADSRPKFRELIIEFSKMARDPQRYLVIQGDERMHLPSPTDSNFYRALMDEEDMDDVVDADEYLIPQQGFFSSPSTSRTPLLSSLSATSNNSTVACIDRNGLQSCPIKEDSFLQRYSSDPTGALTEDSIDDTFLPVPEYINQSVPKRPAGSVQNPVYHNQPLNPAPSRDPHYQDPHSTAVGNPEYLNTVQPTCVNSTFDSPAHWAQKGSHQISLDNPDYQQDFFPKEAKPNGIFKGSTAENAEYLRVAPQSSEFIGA
The target in assay [4] is Ba/F3-EGFR-D770_N771insNPG cells (Homo sapiens, UniProt P00533, INS772GNP, cells depend on it). Put plainly: Ba/F3 cell survival assay, EGFR D770_N771insNPG. It is filed as cell-based. As to conditions: EGFR Exon20 insertion mutations; Table 6; read-out: BA/F3 (insNPG) IC50.
Ba/F3-EGFR-D770_N771insNPG cells, sequence (P00533 with tags, fused parts or gaps INS772GNP): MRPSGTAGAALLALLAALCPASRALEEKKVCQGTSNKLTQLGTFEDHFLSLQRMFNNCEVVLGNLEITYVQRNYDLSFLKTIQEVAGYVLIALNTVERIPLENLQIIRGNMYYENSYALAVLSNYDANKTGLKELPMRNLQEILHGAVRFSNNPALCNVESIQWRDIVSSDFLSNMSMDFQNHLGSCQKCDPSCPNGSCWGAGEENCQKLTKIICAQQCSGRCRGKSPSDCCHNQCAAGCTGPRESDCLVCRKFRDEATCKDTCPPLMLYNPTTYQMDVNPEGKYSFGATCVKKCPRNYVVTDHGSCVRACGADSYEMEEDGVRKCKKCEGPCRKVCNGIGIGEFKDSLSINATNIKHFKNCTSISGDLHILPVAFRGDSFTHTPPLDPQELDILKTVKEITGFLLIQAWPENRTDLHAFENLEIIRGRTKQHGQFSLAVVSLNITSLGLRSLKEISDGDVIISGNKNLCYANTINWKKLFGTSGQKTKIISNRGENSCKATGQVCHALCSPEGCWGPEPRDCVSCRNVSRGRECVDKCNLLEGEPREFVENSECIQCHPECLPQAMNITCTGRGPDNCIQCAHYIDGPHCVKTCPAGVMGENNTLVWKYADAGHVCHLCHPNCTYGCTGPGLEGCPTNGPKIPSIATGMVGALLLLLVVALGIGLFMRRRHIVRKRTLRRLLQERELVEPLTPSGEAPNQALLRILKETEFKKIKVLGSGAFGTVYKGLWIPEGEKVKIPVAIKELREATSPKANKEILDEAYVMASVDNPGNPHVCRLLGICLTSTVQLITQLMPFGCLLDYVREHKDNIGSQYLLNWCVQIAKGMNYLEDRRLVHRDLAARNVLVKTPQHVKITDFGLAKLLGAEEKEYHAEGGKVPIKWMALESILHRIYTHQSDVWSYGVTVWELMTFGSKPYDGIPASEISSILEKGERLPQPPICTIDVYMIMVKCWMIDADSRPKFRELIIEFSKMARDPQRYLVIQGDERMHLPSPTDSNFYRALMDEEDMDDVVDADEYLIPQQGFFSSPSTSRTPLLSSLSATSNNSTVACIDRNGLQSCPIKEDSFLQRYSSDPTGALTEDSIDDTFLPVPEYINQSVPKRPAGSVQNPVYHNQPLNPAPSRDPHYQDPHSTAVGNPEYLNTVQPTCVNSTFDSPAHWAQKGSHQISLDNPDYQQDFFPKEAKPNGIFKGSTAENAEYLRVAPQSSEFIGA
The target in assay [5] is Ba/F3-EGFR-V769_D770insASV cells (Homo sapiens, UniProt P00533, DUP767-769, cells depend on it). Nature of the assay: Ba/F3 cell survival assay, EGFR V769_D770insASV. It counts as cell-based. The settings on record: EGFR Exon20 insertion mutations; Table 6; read-out: BA/F3 (ASV) IC50.
The target in assay [6] is Ba/F3-EGFR-N771_P772insH cells (Homo sapiens, UniProt P00533, INS771H, cells depend on it). Nature of the assay: Ba/F3 cell survival assay, EGFR N771_P772insH. It is filed as cell-based. As to conditions: EGFR Exon20 insertion mutations; Table 6; read-out: BA/F3 (EGFR N771_P772insH) IC50.
The target of assay [7] is Ba/F3-EGFR-H773_V774insNPH cells (Homo sapiens, UniProt P00533, DUP771-773, cells depend on it). Nature of the assay: Ba/F3 cell survival assay, EGFR H773_V774insNPH. It counts as cell-based. As to conditions: EGFR Exon20 insertion mutations; Table 6; read-out: BA/F3 (EGFR H773_774insNPH) IC50.
In assay [8] the target is Ba/F3-EGFR-E746_A750del cells (Homo sapiens, UniProt P00533, DEL746-750, cells depend on it). Nature of the assay: Ba/F3 cell survival assay, EGFR E746_A750del. It counts as cell-based. The settings on record: classical activating and rare EGFR mutations; Table 7; read-out: BA/F3 (EGFR E746_A750del) IC50.
Assay [9] addresses Ba/F3-EGFR L861Q cells (Homo sapiens, UniProt P00533, L861Q, cells depend on it). Nature of the assay: Ba/F3 cell survival assay, EGFR L861Q. It is filed as cell-based. As to conditions: classical activating and rare EGFR mutations; Table 7; read-out: BA/F3 (EGFR L861Q) IC50.
In assay [10] the target is Ba/F3-EGFR-D770_N771insSVD C797S cells (Homo sapiens, UniProt P00533, DUP768-770/C797S, cells depend on it). Put plainly: Ba/F3 cell survival assay, EGFR D770_N771insSVD C797S. It is filed as cell-based. The settings on record: aquired resistance space; Table 8; read-out: BA/F3 (EGFR 0770_N771 insSVD C797S) IC50.
The target of assay [11] is Ba/F3-EGFR-E746_A750del C797S cells (Homo sapiens, UniProt P00533, DEL746-750/C797S, cells depend on it). Put plainly: Ba/F3 cell survival assay, EGFR E746_A750del C797S. It counts as cell-based. As to conditions: aquired resistance space; Table 8; read-out: BA/F3 (EGFR E746_A750del C797S) IC50.
The target in assay [12] is Ba/F3-ERBB2-A775_G776insYVMA cells (Homo sapiens, UniProt P04626, DUP772-775, cells depend on it). Put plainly: Ba/F3 cell survival assay, ERBB2 A775_G776insYVMA. It counts as cell-based. As to conditions: Table 9; read-out: BA/F3 (ERBB2 A775_G776 insYVMA) IC50.
Ba/F3-ERBB2-A775_G776insYVMA cells, sequence (P04626 with tags, fused parts or gaps DUP772-775): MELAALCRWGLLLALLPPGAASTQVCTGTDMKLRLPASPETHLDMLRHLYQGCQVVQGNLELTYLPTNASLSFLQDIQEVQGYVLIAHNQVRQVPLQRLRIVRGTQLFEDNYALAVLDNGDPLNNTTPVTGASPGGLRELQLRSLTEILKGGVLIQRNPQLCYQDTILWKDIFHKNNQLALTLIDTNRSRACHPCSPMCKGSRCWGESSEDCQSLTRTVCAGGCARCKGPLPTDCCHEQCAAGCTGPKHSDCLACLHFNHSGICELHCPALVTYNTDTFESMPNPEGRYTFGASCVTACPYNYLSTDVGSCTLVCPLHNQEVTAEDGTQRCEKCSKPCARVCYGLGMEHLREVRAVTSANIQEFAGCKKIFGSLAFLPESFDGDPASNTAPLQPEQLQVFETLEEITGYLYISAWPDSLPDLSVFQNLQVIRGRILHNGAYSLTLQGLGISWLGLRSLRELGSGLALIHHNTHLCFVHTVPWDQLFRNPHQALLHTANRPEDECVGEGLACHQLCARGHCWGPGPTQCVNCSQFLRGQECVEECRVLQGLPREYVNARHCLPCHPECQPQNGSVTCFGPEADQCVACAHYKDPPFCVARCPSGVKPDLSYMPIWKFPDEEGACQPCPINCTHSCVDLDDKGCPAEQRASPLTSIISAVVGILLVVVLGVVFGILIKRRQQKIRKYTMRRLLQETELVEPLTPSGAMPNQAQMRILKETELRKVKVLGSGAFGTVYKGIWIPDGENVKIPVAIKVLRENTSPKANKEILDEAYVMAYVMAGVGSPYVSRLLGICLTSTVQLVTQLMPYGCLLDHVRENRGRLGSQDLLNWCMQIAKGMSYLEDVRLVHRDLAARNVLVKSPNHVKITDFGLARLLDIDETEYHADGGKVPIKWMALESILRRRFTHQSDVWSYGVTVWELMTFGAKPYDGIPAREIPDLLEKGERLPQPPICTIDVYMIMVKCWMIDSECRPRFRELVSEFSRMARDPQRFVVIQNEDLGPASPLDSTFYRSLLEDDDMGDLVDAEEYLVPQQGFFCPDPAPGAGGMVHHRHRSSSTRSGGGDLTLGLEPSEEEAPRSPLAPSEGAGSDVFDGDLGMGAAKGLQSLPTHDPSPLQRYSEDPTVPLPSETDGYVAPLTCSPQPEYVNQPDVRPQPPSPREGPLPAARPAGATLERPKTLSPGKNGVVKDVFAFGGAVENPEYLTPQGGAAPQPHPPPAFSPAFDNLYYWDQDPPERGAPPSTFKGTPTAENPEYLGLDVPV
In assay [13] the test system is PC9 cells. Put plainly: PC9 cell proliferation assay (EGFRex19del). The settings on record: Homo sapiens, PC-9, 72 h, read-out: PC9 IC50. It is filed as cell-based. How it is done:
Cellular Data Description (PC9 cells, EGFRex19del)
(§1) PC9 cells were purchased from Tokyo Medical College. 400 PC9 cells per well were seeded in growth medium (DMEM, 10% FCS) in a 384-well plate (CORNING #3571). Seed reference plate for time zero determination on the same day. All plates were incubated overnight at 37° C. After 24 hours, test compound were added in 7-step dilution using HP Compound printer and incubated at 37° C. for 72 h. After 3 days, 30 μL/well CTG solution (Promega Cell Titer Glo solution; catalog #G755B and G756B) were added to each well, incubated for 30 minutes and the plate were read on PheraStar. Proliferation is calculated after subtracting time zero luminescence values from day 4 values and comparing to untreated wells.
(§2) The IC50 values were determined using the four parameter fit.

Assay [14] has as its system HCC-827 cells. Put plainly: HCC-827 cell proliferation assay (EGFRex19del). It is filed as cell-based. As to conditions: Homo sapiens, HCC827, 72 h, read-out: HCC-827 IC50. How it is done: Cellular Data Description (HCC-827 cells, EGFRex19del)
as §1, with “HCC-827 cells” for “PC9 cells”, “from ATCC.” for “from Tokyo Medical College.”, “[…]” for “400 PC9”, “medium (RPM11640,” for “medium (DMEM,”
as §2

T1 sequence (P00533 other isoform, or with tags, fused parts or gaps DUP768-770): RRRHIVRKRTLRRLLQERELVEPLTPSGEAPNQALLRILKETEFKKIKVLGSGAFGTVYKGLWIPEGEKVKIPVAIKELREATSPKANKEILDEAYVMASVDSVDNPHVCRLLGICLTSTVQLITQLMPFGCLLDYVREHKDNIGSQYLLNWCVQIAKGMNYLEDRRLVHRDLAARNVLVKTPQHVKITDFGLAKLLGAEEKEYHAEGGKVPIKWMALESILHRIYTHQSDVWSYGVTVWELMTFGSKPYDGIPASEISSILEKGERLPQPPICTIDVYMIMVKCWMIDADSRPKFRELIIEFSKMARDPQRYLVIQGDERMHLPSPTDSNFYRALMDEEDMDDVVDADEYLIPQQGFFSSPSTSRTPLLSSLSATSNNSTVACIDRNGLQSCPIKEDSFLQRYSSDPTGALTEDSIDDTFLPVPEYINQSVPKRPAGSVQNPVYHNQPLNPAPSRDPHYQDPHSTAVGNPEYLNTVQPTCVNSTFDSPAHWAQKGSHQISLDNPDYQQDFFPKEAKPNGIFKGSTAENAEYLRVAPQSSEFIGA

Turning to `COc1c(Cl)cccc1Nc1c(-c2ccncc2OCCC(C)OC)[nH]c2c1C(=O)N[C@H](C)C2` (single isomer, unassigned) [Example 121], the “mutEGFR (D770_N771insSVD) kinase assay IC50” value (shortened to “mutEGFR”) in assay [1] came out at 0.188 nM. Further, the GI50 is 8.81 nM in assay [2]; 267 nM in assay [3]; 12.8 nM in assay [4]; 10.1 nM in assay [5]; 4.49 nM in assay [6]; 49.2 nM in [7]. Moreover, the GI50 in [8] was 0.887 nM; in assay [9], 11.2 nM; in assay [10], 21.7 nM; in assay [11] it was 0.384 nM; in assay [12], 12.8 nM. For the same compound, the IC50 in assay [13] was 1.84 nM; in assay [14], less than 3 nM.
As to `COc1c(Cl)cccc1Nc1c(-c2ccncc2OC[C@@H]2CCCO2)[nH]c2c1C(=O)NC1(CC1)C2` [Example 113, 3′-(3-chloro-2-methoxyanilino)-2′-(3-{[(2S)-oxolan-2-yl]methoxy}pyridin-4-yl)-1′,7′-dihydrospiro[cyclopropane-1,6′-pyrrolo[3,2-c]pyridin]-4′(5′H)-one], the “mutEGFR” value in [1] is 0.201 nM. Moreover, the GI50 in assay [2] was determined as 23.7 nM; in assay [3], 849 nM; in assay [4] it was 24.9 nM; in assay [5], 26 nM; in [6] it was 14.3 nM; in [7], 116 nM. The GI50 in assay [8] is 0.989 nM; in assay [9], 45 nM; in assay [10], 71.4 nM; in assay [11] it was 1.1 nM; in assay [12] it was 22.2 nM. The figures for the IC50 in assay [13] and in assay [14] were 6.46 nM and less than 3 nM, respectively.
For `COc1c(Cl)cccc1Nc1c(-c2ccncc2OCCC2CCCCO2)[nH]c2c1C(=O)N[C@H](C)C2` (single isomer, unassigned) [Example 87], the “mutEGFR” value in [1] is 0.535 nM. In addition, the GI50 in [2] came out at 15 nM; in [3] it was 421 nM; in [4], 15 nM; in assay [5], 13.2 nM; in assay [6] it was 21.6 nM; in [7], 138 nM. In addition, the GI50 turned out to be 5 nM in assay [8]; 33.4 nM in [9]; 22.1 nM in assay [10]; 0.804 nM in [11]; 16.2 nM in assay [12]. Besides, the IC50 in assay [13] was 1.82 nM; in assay [14] it was less than 3 nM.
For the compound `COc1c(Cl)cccc1Nc1c(-c2ccncc2OCC2COCCO2)[nH]c2c1C(=O)NCC2C` (single isomer, unassigned) [Example 34, 3-(3-chloro-2-methoxy-anilino)-2-[3-(1,4-dioxan-2-ylmethoxy)-4-pyridyl]-7-methyl-1,5,6,7-tetrahydropyrrolo[3,2-c]pyridin-4-one], the “mutEGFR” value in assay [1] was 0.175 nM. Further, the GI50 was determined as 20.2 nM in assay [2]; 424 nM in assay [3]; 16.9 nM in [4]; 30.2 nM in [5]; 14.3 nM in [6]; 165 nM in [7]. For the same compound, the GI50 in assay [8] was determined as 1.19 nM; in assay [9], 31.8 nM; in assay [10] it was 35.5 nM; in assay [11], 0.795 nM; in [12], 33.1 nM. Besides, the half-maximal inhibitory concentration (IC50) was 3.43 nM in assay [13] and less than 3 nM in assay [14].
Consider `Cc1c(Cl)cccc1Nc1c(-c2ccncc2OCC2COCCO2)[nH]c2c1C(=O)NCC2C` (single isomer, unassigned) [Example 67, 3-(3-chloro-2-methyl-anilino)-2-[3-(1,4-dioxan-2-ylmethoxy)-4-pyridyl]-7-methyl-1,5,6,7-tetrahydropyrrolo[3,2-c]pyridin-4-one], for which the “mutEGFR” value in [1] was 0.252 nM. The GI50 was 27.1 nM in [2]; 1150 nM in assay [3]; 13.5 nM in assay [4]; 40.3 nM in [5]; 18.3 nM in assay [6]; 117 nM in assay [7]. For the same compound, the GI50 in [8] was 1.41 nM; in assay [9], 53.6 nM; in assay [10], 40.6 nM; in assay [11] it was 0.581 nM; in assay [12], 29.2 nM. Moreover, the IC50 in assay [13] is 4.09 nM; in assay [14] it was less than 3 nM.
In the case of `COCC(C)Oc1cnccc1-c1[nH]c2c(c1Nc1cccc(Cl)c1OC)C(=O)N[C@@H]1CCC[C@H]21` (single isomer, unassigned) [Example 51], the “mutEGFR” value in assay [1] is 0.305 nM. Besides, the GI50 in assay [2] was 13.6 nM; in [3], 412 nM; in assay [4], 11.4 nM; in [5] it was 12.8 nM; in assay [6] it was 6.89 nM; in [7], 30.8 nM. In addition, the GI50 in assay [8] stood at 1.05 nM; in [9] it was 14.9 nM; in [10], 19.5 nM; in [11], 0.564 nM; in assay [12], 15.2 nM. In addition, the IC50 is 1.74 nM in assay [13] and less than 3 nM in assay [14].
